Reference: US6469028B1, “Synthesis and use of retinoid compounds having negative hormone and/or anatgonist activities” (Allergan, Inc., priority 1995, dated 2002)

Key:
Experiment in all cases: Ligand binding assay
RARβ = biological target: T1, RARβ (Homo sapiens, UniProt P10826); settings: read-out: Kd (nanomolar) RARβ
T1 sequence (P10826 1-455): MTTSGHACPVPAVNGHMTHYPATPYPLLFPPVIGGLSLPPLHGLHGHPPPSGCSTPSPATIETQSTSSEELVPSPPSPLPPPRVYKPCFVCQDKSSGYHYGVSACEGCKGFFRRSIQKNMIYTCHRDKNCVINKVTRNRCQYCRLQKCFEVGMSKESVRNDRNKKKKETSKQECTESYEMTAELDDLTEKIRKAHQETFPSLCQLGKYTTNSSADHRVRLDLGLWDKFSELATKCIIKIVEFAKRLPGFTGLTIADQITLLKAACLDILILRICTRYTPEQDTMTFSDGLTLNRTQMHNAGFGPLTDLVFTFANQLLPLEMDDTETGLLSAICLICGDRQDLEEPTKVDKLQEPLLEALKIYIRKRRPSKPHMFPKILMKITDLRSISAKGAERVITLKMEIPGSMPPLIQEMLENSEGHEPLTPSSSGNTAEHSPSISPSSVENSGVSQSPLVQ
Source text: (§1) A holoreceptor transactivation assay and a ligand binding assay which measure the antagonist/agonist like activity of the compounds of the invention, or their ability to bind to the several retinoid receptor subtypes, respectively, are described in published PCT Application No. WO93/11755 (particularly on pages 30-33 and 37-41) published on Jun. 24, 1993, the specification of which is also incorporated herein by reference. A description of the holoreceptor transactivation assay is also provided below.
(§2) CV1 cells (5,000 cells/well) were transfected with an RAR reporter plasmid MTV-TREp-LUC (50 ng) along with one of the RAR expression vectors (10 ng) in an automated 96-well format by the calcium phosphate procedure of Heyman et al. Cell 68: 397-406. For RXR-α and RXR-γ transactivation assays, an RXR-responsive reporter plasmid CRBPII-tk-LUC (50 ng) along with the appropriate RXR expression vectors (10 ng) was used substantially as described by Heyman et al. above, and Allegretto et al. J. Biol. Chem. 268: 26625-26633. For RXR-β transactivation assays, an RXR-responsive reporter plasmid CPRE-tk-LUC ([…]) along with RXR-β expression vector ([…]) was used as described in above. These reporters contain DRI elements from human CRBPII and certain DRI elements from promotor, respectively (see Mangelsdorf et al. The Retinoids: Biology Chemistry and Medicine, pp. 319-349, Raven Press Ltd., New York and Heyman et al., cited above). A β-galactosidase (50 ng) expression vector was used as an internal control in the transfections to normalize for variations in transfection efficiency. The cells were transfected in triplicate for 6 hours, followed by incubation with retinoids for 36 hours, and the extracts were assayed for luciferase and […] activities. The detailed experimental procedure for holoreceptor transactivations has been described in Heyman et al. above, and Allegretto et al. cited above. The results obtained in this assay are expressed in EC50 numbers, as they are also in the chimeric receptor transactivation assay. The Heyman et al. Cell 68: 397-406, Allegretto et al. J. Biol. Chem. 268: 26625-26633, and Mangelsdorf et al. The Retinoids: Biology, Chemistry, and Medicine, pp. 319-349, Raven Press Ltd., New York, are expressly incorporated herein by reference. The results of ligand binding assay are expressed in Kd numbers. (See Cheng et al. Biochemical Pharmacology 22: 3099-3108, expressly incorporated herein by reference.) […]

RARα = biological target: T2, RARα (Homo sapiens, UniProt P10276); design: expressed in transfected cells; host or cells: CV1 cells; settings: read-out: Kd (nanomolar) RARα
T2 sequence (P10276 1-462): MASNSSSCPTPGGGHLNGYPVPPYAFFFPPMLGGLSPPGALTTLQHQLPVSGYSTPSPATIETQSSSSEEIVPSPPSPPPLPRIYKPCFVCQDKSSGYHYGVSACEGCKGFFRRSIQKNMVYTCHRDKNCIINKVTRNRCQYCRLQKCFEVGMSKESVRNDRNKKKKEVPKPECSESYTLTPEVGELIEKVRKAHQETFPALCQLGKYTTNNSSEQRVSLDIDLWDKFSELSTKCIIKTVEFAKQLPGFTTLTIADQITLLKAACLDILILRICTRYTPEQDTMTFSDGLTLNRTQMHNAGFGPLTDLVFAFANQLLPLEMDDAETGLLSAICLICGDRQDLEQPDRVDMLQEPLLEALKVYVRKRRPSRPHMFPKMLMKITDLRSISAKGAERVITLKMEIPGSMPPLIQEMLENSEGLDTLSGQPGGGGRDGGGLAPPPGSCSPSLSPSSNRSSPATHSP
Source text: as §1, §2

RARγ = biological target: T3, RARγ (Homo sapiens, UniProt P13631); design: expressed in transfected cells; host or cells: CV1 cells; settings: read-out: Kd (nanomolar) RARγ
T3 sequence (P13631 1-454): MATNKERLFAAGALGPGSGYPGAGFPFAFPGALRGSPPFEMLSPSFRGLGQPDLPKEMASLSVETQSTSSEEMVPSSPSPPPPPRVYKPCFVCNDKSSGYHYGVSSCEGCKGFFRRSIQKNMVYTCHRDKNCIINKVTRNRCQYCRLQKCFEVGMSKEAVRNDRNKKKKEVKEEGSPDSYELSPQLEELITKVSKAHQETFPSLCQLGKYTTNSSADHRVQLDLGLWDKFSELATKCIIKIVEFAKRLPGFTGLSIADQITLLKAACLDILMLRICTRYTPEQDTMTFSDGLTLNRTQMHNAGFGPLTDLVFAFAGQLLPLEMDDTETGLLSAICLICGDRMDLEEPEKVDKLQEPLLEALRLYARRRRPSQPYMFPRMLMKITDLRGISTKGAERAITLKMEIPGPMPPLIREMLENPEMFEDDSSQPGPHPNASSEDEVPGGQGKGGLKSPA
Source text: as §1, §2

SMILES | Kd (RARβ) [nM] | Kd (RARα) [nM] | Kd (RARγ) [nM]
Cc1ccc(C2=CCC(C)(C)c3ccc(C(=S)Nc4ccc(C(=O)O)c(F)c4)cc32)cc1 [Compound 63, 2-fluoro-4-[[(5,6-dihydro-5,5-dimethyl-8-(4-methylphenyl)-2-naphthalenyl)thiocarbonyl]amino]-benzoic acid] | 3220 | 133 | 
CC(/C=C/C=C(\C)c1ccc2c(c1)C(c1ccc(C)cc1)=CCC2(C)C)=C\C(=O)O [Compound 52, (E,E,E)-3-methyl-7-(5,6-dihydro-5,5-dimethyl-8-(4-methylphenyl)-2-naphthalenyl)-2,4,6-octatrienoic acid] | 63 | 60 | 56
Cc1ccc(C2=CCC(C)(C)c3ccc(N=Nc4ccc(C(=O)O)cc4)cc32)cc1 [Compound 46b, 4-[(5,6-dihydro-5,5-dimethyl-8-(4-methylphenyl)-2-naphthalenyl)azo]-benzoic acid] | 3.7 | 250 | 5.8
Cc1ccc(C2=CCC(C)(C)c3ccc(/C=C/c4ccc(C(=O)O)cc4)cc32)cc1 [Compound 45] | 2.8 | 12 | 17
Cc1cc(C)cc(C2=CCC(C)(C)c3ccc(C#Cc4ccc(C(=O)O)cc4)cc32)c1 [Compound 24, 4-[(5 6-Dihydro-5,5-dimethyl-8-(3,5-dimethylphenyl)-2-naphthalenyl)ethynyl]benzoic acid] | 235 | 699 | 286
Cc1cccc(C2=CCC(C)(C)c3ccc(C#Cc4ccc(C(=O)O)cc4)cc32)c1 [Compound 20, 4-[(5,6-Dihydro-5,5-dimethyl-8-(3-methylphenyl)-2-naphthalenyl)ethynyl]benzoic acid] | 22 | 130 | 34
CC1(C)CC=C(c2ccccn2)c2cc(C#Cc3ccc(C(=O)O)cc3)ccc21 [Compound 19, 4-[(5,6-Dihydro-5,5-dimethyl-8-(2-pyridyl)-2-naphthalenyl)ethynyl]benzoic acid] | 210 | 565 | 659
CC1(C)CC=C(c2ccccc2)c2ccc(C(=O)C=Cc3ccc(C(=O)O)cc3)cc21 [Compound 103, 4-[3-oxo-3-(7,8-dihydro-5-phenyl-8,8-dimethyl-2-naphthalenyl)-1-propenyl]-benzoic acid] | 273 | 301 | 261
Cc1ccc(C2=CCC(C)(C)c3ccc(C(=O)Oc4ccc(C(=O)O)cc4)cc32)cc1 [Compound 39, 4-[[(5,6-Dihydro-5,5-dimethyl-8-(4-methylphenyl)-2-naphthalenyl)carbonyl]oxy]-benzoic acid] | 38 | 67 | 113
Cc1cnc(C2=CCC(C)(C)c3ccc(C#Cc4ccc(C(=O)O)cc4)cc32)s1 [Compound 30, 4-[(5,6-Dihydro-5,5-dimethyl-8-(5-methylthiazol-2-yl)-2-naphthalenyl)ethynyl]benzoic acid] | 141 | 683 | 219
COc1ccc(C2=CCC(C)(C)c3ccc(C#Cc4ccc(C(=O)O)cc4)cc32)cc1 [Compound 22, 4-[(5,6-Dihydro-5,5-dimethyl-8-(4-methoxyphenyl)-2-naphthalenyl)ethynyl]benzoic acid] | 17 | 24 | 27
CC1(C)CC=C(c2ccc(O)cc2)c2cc(C#Cc3ccc(C(=O)O)cc3)ccc21 [Compound 29, 4-[(5,6-Dihydro-5,5-dimethyl-8-(4-hydroxyphenyl)-2-naphthalenyl)ethynyl]benzoic acid] | 48 | 234 | 80
Cc1csc(C2=CCC(C)(C)c3ccc(C#Cc4ccc(C(=O)O)cc4)cc32)n1 [Compound 31, 4-[(5,6-Dihydro-5,5-dimethyl-8-(4-methylthiazol-2-yl)-2-naphthalenyl)ethynyl]benzoic acid] | 52 | 370 | 100
Cc1ccc(C2=CCC(C)(C)c3ccc(C#Cc4ccc(C(=O)O)cc4)cc32)cn1 [Compound 18, 4-[(5,6-Dihydro-5,5-dimethyl-8-(2-methyl-5-pyridyl)-2-naphthalenyl)ethynyl]benzoic acid] | 11 | 24 | 24

The remaining lines, values ahead:

Kd (RARβ) [nM] | Kd (RARα) [nM] | Kd (RARγ) [nM] | SMILES
14 | 69 | 26 | Cc1ccccc1C1=CCC(C)(C)c2ccc(C#Cc3ccc(C(=O)O)cc3)cc21 [Compound 27, 4-[(5,6-Dihydro-5,5-dimethyl-8-(2-methylphenyl)-2-naphthalenyl)ethynyl]benzoic acid]
491 | 5.1 | 725 | Cc1ccc(C2=CCC(C)(C)c3ccc(C(=O)Nc4ccc(C(=O)O)c(F)c4)cc32)cc1 [Compound 41, 2-Fluoro-4-[[(5,6-dihydro-5,5-dimethyl-8-(4methylphenyl)-2-naphthalenyl)carbonyl]amino]-benzoic acid]
550 | 13 |  | Cc1ccc(C2=CCC(C)(C)c3ccc(C(=O)Nc4ccc(C(=O)O)cc4)cc32)cc1 [Compound 36, 4-[[(5,6-Dihydro-5,5-dimethyl-8-(4-methylphenyl)-2-naphthalenyl)carbonyl]amino]-benzoic acid]
30 | 52 | 17 | Cc1ccc(C2=CCC(C)(C)c3ccc(C#Cc4ccc(C(=O)O)cc4)cc32)s1 [Compound 34, 4-[(5,6-Dihydro-5,5-dimethyl-8-(5-methyl-2-thienyl)-2-naphthalenyl)ethynyl]benzoic acid]
31 | 40 | 36 | CC1(C)CC=C(c2cccnc2)c2cc(C#Cc3ccc(C(=O)O)cc3)ccc21 [Compound 26, 4-[(5,6-Dihydro-5,5-dimethyl-8-(3-pyridyl)-2-naphthalenyl)ethynyl]benzoic acid]
77 | 669 | 236 | CC1(C)CC=C(c2cccc(O)c2)c2cc(C#Cc3ccc(C(=O)O)cc3)ccc21 [Compound 28, 4-[(5,6-Dihydro5,5-dimethyl-8-(3-hydroxyphenyl)-2-naphthalenyl)ethynyl]benzoic acid]
89 |  | 169 | Cc1nc(C2=CCC(C)(C)c3ccc(C#Cc4ccc(C(=O)O)cc4)cc32)sc1C [Compound 32]
